Results on three molecules are retold here after article PMC11550483 (2024).

Series [1] deals with HCoV-NL63 M^pro (Human coronavirus NL63, UniProt P0C6X5). Type of series: cell-based. Particulars: read-out: EC50 NL63 M^pro inhibition, cellular gain-of-signal.
In series [2] the test system is SARS2 M^pro. To be noted: cited from earlier work.
Series [3] concerns SARS2 replication. To be noted: read-out: EC50 against SARS2 replication; cited from earlier work.
In series [4] the test system is 293T cells. To be noted: up to the highest tested concentration (100 μM).

Read-outs that look alike come from different tables or passages of the source. Where a SMILES comes first, the peptide text is derived from it.

A word on the EC50: it is the midpoint of the concentration-response curve. Usually IC50 stands for the concentration needed to halve the response being measured.

Chain of HCoV-NL63 M^pro (P0C6X5 2940-3242): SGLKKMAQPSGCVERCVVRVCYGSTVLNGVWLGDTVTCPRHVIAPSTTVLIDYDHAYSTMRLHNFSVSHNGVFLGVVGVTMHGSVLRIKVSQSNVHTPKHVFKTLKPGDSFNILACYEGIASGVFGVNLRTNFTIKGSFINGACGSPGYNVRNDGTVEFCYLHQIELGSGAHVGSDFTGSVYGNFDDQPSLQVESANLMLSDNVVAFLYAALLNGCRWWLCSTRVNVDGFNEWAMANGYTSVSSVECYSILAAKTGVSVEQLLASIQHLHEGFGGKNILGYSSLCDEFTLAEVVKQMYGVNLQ

Take `CC(C)C[C@H](NC(=O)OCc1ccccc1)C(=O)N[C@@H](CC1CCNC1=O)C(O)S(=O)(=O)O` (some centres unmarked) [GC376]: the EC50 in series [1] amounted to 770 nM.
Turning to `O=C(NCc1cccs1)C1CN(C(=O)c2cccnc2)CCN1c1ccc(Cl)c(Cl)c1` (centres unmarked) [GC-14, reference compound], in series [2] (read-out: IC50 in a similar biochemical assay, ref [60]–[61]), the IC50 was 400 nM. For the same molecule, the EC50 in series [3] is 1100 nM.
Turning to `CSCCC(C=O)NC(=O)C(CC(C)C)NC(=O)C(CC(C)C)NC(C)=O` (stereo not drawn) [MWAC-0001889, CSCCC(NC(=O)C(CC(C)C)NC(=O)C(CC(C)C)NC(=O)C)C=O] (Ac-Leu-Leu-Met-aldehyde; configuration not given here), the “toxicity in 293T cells” value in series [4] was “no toxicity”. The IC50 in series [2] (read-out: IC50 SARS2 M^pro in a biochemical assay, ref [29],[32],[39],[58],[59]) is 970 nM.
